Reference: US20250009743A1, “METHODS OF TREATING CANCERS USING STING AGONISTS” (Dana-Farber Cancer Institute, Inc., priority 2021, published 2025)

Legend:
[1] = tested on: BP-sgSTING tumors; test: BP-sgSTING tumor growth and survival in FVB mice; type: in vivo, mouse; conditions: olaparib 50 mg/kg i.p. q.d.
Description: Primary mammary tumor cells for orthotopic injection were resuspended in serum-free DMEM containing 40% matrigel (Corning). 5×10^5 tumor cells in a total volume of 100 μL were injected orthotopically into the thoracic mammary fat pads of 8-week-old female FVB/NJ mice (The Jackson Laboratory). Tumor growth was examined by measuring the greatest longitudinal diameter (length) and the greatest transverse diameter (width) with digital calipers, and tumor volume was calculated by use of the modified ellipsoid formula (0.52×length×width2). Tumors were measured 2-3 times a week. All tumor measurements within single cohorts were performed by the same researcher. Tumor-bearing mice were randomized prior to start of treatment. Drug treatments were started when mean tumor volumes approximated 50-100 mm3. Mice were euthanized by CO2 inhalation when tumor volumes met humane endpoints described in the IACUC (20 mm diameter) protocols or upon severe health deterioration.
Olaparib (MedChem, #HY-10162) was prepared by diluting 100 mg/l mL stocks in DMSO with 10% (2-Hydroxypropyl)-β-cyclodextrin (HPCD, MedChem, #101103) in PBS and administered immediately after drug preparation by intraperitoneal (i.p.) injection at a dose of 50 mg/kg body weight daily. DMXAA (Sigma, #D5817) was reconstituted at 10 mg/mL in 7.5% NaHCO3(Gibco). […]

[2] = tested on: PE tumors; test: PE (exon19del/T790M EGFR, Trp53 loss) tumor growth in FVB mice; type: in vivo, mouse; conditions: start at about 400 mm^3; osimertinib 10 mg/kg daily by gavage; MSA-2 20 mg/kg i.p. every three days; FIG. 30A
[3] = tested on: WT BMDMs and STING^−/− BMDMs; test: WT and STING^−/− BMDMs cultured in CM from ID8-Brca1^−/− cells; type: cell-based, mouse; conditions: CM of control or olaparib-treated ID8-Brca1^−/− cells; FIG. 21I
Description: For ex vivo culture of mouse macrophages, bone marrow cells were isolated from FVB/NJ mice and cultured in DMEM containing 10% FBS, 55 μM 2-Mercaptoethanol and 20 ng/ml M-CSF. BMDMs (bone marrow derived macrophages) were harvested on day 7 and further cultured in 2.0 ml control medium (90% DMEM, 10% FBS, 55 μM 2-Mercaptoethanol and 5 ng/ml M-CSF) described above or the medium containing 50% tumor cell conditioned medium for 72 hrs before analysis. For the tumor cell conditioned medium, about 3×10^5 tumor cells were cultured in 6-well plate for 24 hrs and then treated with DMSO or olaparib. After 24 hrs incubation with DMSO or olaparib, the tumor cells were washed twice with PBS and cultured in DMEM containing 10% FBS for 48 hrs. The tumor cell conditioned medium was collected by centrifugation at 1,500 g for 5 min at 4° C. to remove all the debris and cells. For the cytokine blocking experiment, monoclonal antibodies that specific to each cytokine were added to the tumor cell conditioned medium before it was applied to culture macrophages.

[4] = tested on: BP tumor cells; test: Pro-inflammatory cytokine expression in BP tumor cells (RT-qPCR, IFNβ ELISA); type: cell-based, mouse; conditions: olaparib two days
Description: Total RNA was extracted using RNeasy® Plus Mini Kit (QIAGEN, #74134). An iScript Reverse Transcription Supermix (Bio-Rad, #1708841) was used for the first-strand cDNA synthesis with 1 μg total RNA. Real-time PCR was performed using SYBR™ Select Master Mix (Thermo Fisher, #4472908) with gene-specific primers (mouse/16, forward 5′-[…]-3′, reverse 5′-[…]-3′; mouse//1b, forward 5′-[…]-3′, reverse 5′-[…]-3′; mouse Cxcl1, forward 5′-[…]-3′, reverse 5′-[…]-3′; mouse Ifnb, forward 5′-[…]-3′, reverse 5′-[…]-3′; mouse Ccl5, forward 5′-[…]-3′, reverse 5′-[…]-3′; mouse Cxcl10, forward 5′-[…]-3′, reverse 5′-[…]-3′; mouse Actb, forward 5′-[…]-3′, reverse 5′-[…]-3′; human IL6, forward 5′-[…]-3′, reverse 5′-[…]-3′; human IL1B, forward 5′-[…]-3′, reverse 5′-[…]-3′; human CXCL1, forward 5′-[…]-3′, reverse 5′-[…]-3′; human GAPDH, forward 5′-[…]-3′, reverse 5′-[…]-3′). Relative mRNA levels were calculated using the […]. Mouse Actb and human GAPDH were used as endogenous controls for mouse and human samples, respectively.
Tumor cells were treated with olaparib or DMSO vehicle control for two days. To assess IFNβ production by tumor cells, cell culture supernatants were harvested and subjected to centrifugation at 1,500×g for 10 min at 4° C. to remove floating cells and debris. IFNβ was then detected via mouse IFNβ ELISA Kit (Thermo Fisher, #424001) according to manufacturer's instructions.

[5] = tested on: STAT3 phosphorylation in PBM tumor cells; test: p-STAT3 (Y705) in PBM tumor cells (flow cytometry, Western blot); type: cell-based, mouse; conditions: PARPi-naïve PBM cells, 24 hours; FIGS. 19D and 20B
Description: Analysis of p-STAT3 and γ-H2AX (p-HA2X-Ser139) was performed according to a two-step protocol for intracellular phosphorylated signaling proteins (Thermo Fisher). Briefly, cells were incubated with LIVE/DEAD Fixable Aqua Dead Cell Stain for 30 min. After washing, cells were suspended in 100 μl PBS and then fixed by adding an equal volume of IC Fixation Buffer (CAT #00-822-49, Thermo Fisher) directly to cells and incubated at room temperature for 20 min followed by fixing with ice-cold 90% methanol in PBS for 30 min. The fixed cells were blocked and stained with p-STAT3 or γ-H2AX antibodies for flow cytometry analysis as described above.
Tumor cells were harvested and lysed with ice-cold RIPA buffer supplemented with protease phosphatase inhibitor cocktail (Thermo Fisher). Protein concentration was determined using a Pierce BCA Protein Assay Kit (Thermo Fisher). About 50 μg protein extracts were loaded and separated by SDS-PAGE, and then transferred to polyvinylidene fluoride (PVDF) membranes. After blocking with 5% non-fat milk (Bio-Rad) in PBST (PBS plus 0.2% Tween 20) at room temperature for 1 hr, membranes were incubated with primary antibodies overnight at 4° C.

In the case of `Cc1ccc2c(=O)c3cccc(CC(=O)O)c3oc2c1C` [DMXAA, 5,6-dimethyl-xanthenone-4-acetic acid], the BP-sgSTING tumor growth ([1]; DMXAA 10 mg/kg i.p. weekly, FIG. 11H) is reported as “no significant impact” and the BP-sgSTING tumor growth ([1]; DMXAA 10 mg/kg intratumoral one dose per week, FIG. 12B) is reported as “completely refractory”.

`COc1cc2cc(C(=O)CCC(=O)O)sc2cc1OC` [MSA-2] was tested, and the PE tumor growth [2] was “only modest therapeutic effects” and the “M2-like TAM polarization of WT BMDMs” value [3] was “successfully reversed”.

`O=C(c1cc(Cc2n[nH]c(=O)c3ccccc23)ccc1F)N1CCN(C(=O)C2CC2)CC1` [olaparib] was tested, and the “IFNB, Ccl5 and Cxcl10 in BP-sgSTING cells” value ([4]; BP-sgSTING cells, FIG. 11D-F) was “failed to up-regulate”, the “pro-inflammatory cytokines (Ifnb, Ccl5 and Cxcl10) in BP tumor cells” value ([4]; control medium or naive BMDM-CM, FIG. 6E) was “marked up-regulation” and the “phosphorylation of STAT3” value [5] was “increased phosphorylation levels of STAT3 in cultured PBM cells in a dose-dependent manner”.
